# Results published in patent publication US20260262647A1, “Synergistic Compositions Containing Guanidine” (Thor GmbH, priority 2023, published 2026).
# Several values for one entry are separate records, joined by “and”; a condition that tells them apart may be missing. Equal values may be shown once.
# Legend:
# [1] = tested on: Pseudomonas spec. DSM 115322; assay: Minimum inhibitory concentrations and synergy index in Müller-Hinton broth; type: cell-based; conditions: for QA: Concentration of guanidine as the sole agent that shows an endpoint: guanidine (added as guanidine hydrochloride) alone, 48 hours at 30° C.
# [2] = tested on: bacteria mixture B; assay: Emulsion paint inoculated once with bacteria mixture B, semiquantitative growth evaluation; type: cell-based; design: key: 0: No growth; Minimal growth, 1 to 10 colonies visible over the entire streak; 2: Light growth, maximum 100 colonies; Moderate growth, maximum 300 to 400 colonies; Uniform growth, >400 colonies, single colonies still clearly recognizable; 5: Heavy growth, too many colonies to count, but no growth over the entire streak; 6: Full growth, barely any single colonies still apparent, growth over the entire streak; conditions: +6000 ppm guanidine hydrochloride (3708 ppm guanidine)
# Description: In examples 35 to 38 below, synergistic interaction between guanidine and antimicrobial substances with respect to microbial infestation was studied using an emulsion paint and a laundry detergent or cleaning composition by adding particular amounts of guanidine salts and isothiazolinones and examining their stability against microbial infestation: […] The laundry detergent was a heavy-duty laundry detergent without preservatives (pH 8.1), and the cleaning composition was an all-purpose detergent without preservatives (pH 7.6), each likewise made in the laboratory, without addition of the otherwise usual conventional preservatives. To each paint was added—individually and in combination—particular concentrations of guanidinium hydrochloride, benzisothiazolinone (BIT), and a mixture of chloromethylisothiazolinone (CIT) and methylisothiazolinone (MIT). The laundry detergent and the cleaning composition were admixed with particular concentrations of guanidinium hydrochloride and benzisothiazolinone (BIT). The resultant batches of the paint thus prepared were inoculated with a mixture of different bacteria species (bacteria mixture B); the batches of the laundry detergent and cleaning compositions thus prepared were inoculated with a yeast mixture. • Pseudomonas spp. (Pseudomonas oleovorans group) DSM 33933 • Pseudomonas aeruginosa DSM 33935 • Pseudomonas oleovorans DSM 33936 • Pseudomonas spec. DSM 33937 • Pseudomonas aeruginosa DSM 33938 […] The cell suspension of the bacteria mixture was produced by growing the individual bacteria at 30° C. for 24 h in liquid culture on a shaker. The growth medium used for the bacteria was Müller-Hinton liquid medium. After growing, the individual liquid cultures were centrifuged, and the cells were resuspended in physiological saline solution. […] The cell count of the inoculum was determined in each case by chamber counting. […] The streaked agar plates were then incubated at 30° C. for 48 hours (bacteria) or at 25° C. for 72 hours (yeasts). After incubation, the bacterial or yeast colonies that have grown on the agar plates were visually evaluated and quantified according to the following scheme: [table]
compound,measurement,setting,value
N=C(N)N [guanidine],QA: Concentration of guanidine as the sole agent that shows an endpoint,[1]; MHB adjusted to pH 5.5,12359 ppm
same,QA: Concentration of guanidine as the sole agent that shows an endpoint,[1]; MHB,9269 ppm and 9105 ppm
same,Synergy index Qa/QA + Qb/QB,[1]; guanidine and AEPD,1.00
same,Synergy index Qa/QA + Qb/QB,[1]; guanidine and AMP,1.00
same,Synergy index Qa/QA + Qb/QB,[1]; guanidine and BBIT,1.00
same,Synergy index Qa/QA + Qb/QB,[1]; guanidine and BIT,1.00
same,Synergy index Qa/QA + Qb/QB,[1]; guanidine and DBDCB,1.00
same,Synergy index Qa/QA + Qb/QB,[1]; guanidine and DBNPA,1.00
same,Synergy index Qa/QA + Qb/QB,[1]; guanidine and EDTA,1.00
same,Synergy index Qa/QA + Qb/QB,[1]; guanidine and EHG,1.00
same,Synergy index Qa/QA + Qb/QB,[1]; guanidine and HEDP,1.00
same,Synergy index Qa/QA + Qb/QB,[1]; guanidine and IPBC,1.00
same,Synergy index Qa/QA + Qb/QB,[1]; guanidine and MBIT,1.00
same,Synergy index Qa/QA + Qb/QB,[1]; guanidine and MEA,1.00
same,Synergy index Qa/QA + Qb/QB,[1]; guanidine and MIT,1.00
same,Synergy index Qa/QA + Qb/QB,[1]; guanidine and OIT,1.00
same,Synergy index Qa/QA + Qb/QB,"[1]; guanidine and benzoic acid, pH 5.5",1.00
same,Synergy index Qa/QA + Qb/QB,[1]; guanidine and benzyl alcohol,1.00
same,Synergy index Qa/QA + Qb/QB,[1]; guanidine and bronopol,1.00
same,Synergy index Qa/QA + Qb/QB,"[1]; guanidine and citric acid, pH 5.5",1.00
same,Synergy index Qa/QA + Qb/QB,"[1]; guanidine and heptane-1,2-diol",1.00
same,Synergy index Qa/QA + Qb/QB,"[1]; guanidine and hexane-1,2-diol",1.00
same,Synergy index Qa/QA + Qb/QB,[1]; guanidine and hexylglycerol,1.00
same,Synergy index Qa/QA + Qb/QB,[1]; guanidine and isopropanol,1.00
same,Synergy index Qa/QA + Qb/QB,"[1]; guanidine and lactic acid, pH 5.5",1.00
same,Synergy index Qa/QA + Qb/QB,[1]; guanidine and oPP,1.00
same,Synergy index Qa/QA + Qb/QB,"[1]; guanidine and octane-1,2-diol",1.00
same,Synergy index Qa/QA + Qb/QB,"[1]; guanidine and pentane-1,2-diol",1.00
same,Synergy index Qa/QA + Qb/QB,[1]; guanidine and phenethyl alcohol,1.00
same,Synergy index Qa/QA + Qb/QB,[1]; guanidine and phenoxyethanol,1.00
same,Synergy index Qa/QA + Qb/QB,[1]; guanidine and phenylpropanol,1.00
same,Synergy index Qa/QA + Qb/QB,[1]; guanidine and pyrithione,1.00
same,Synergy index Qa/QA + Qb/QB,"[1]; guanidine and salicylic acid, pH 5.5",1.00
same,Synergy index Qa/QA + Qb/QB,"[1]; guanidine and sorbic acid, pH 5.5",1.00
same,Bacterial growth,"[2]; Example 35, emulsion paint, Day 1",6
same,Bacterial growth,"[2]; Example 35, emulsion paint, Day 6",6
same,Bacterial growth,"[2]; Example 36, emulsion paint, Day 1",6
same,Bacterial growth,"[2]; Example 36, emulsion paint, Day 6",6
